Laboratory results reported in patent US11771737B2, “Treating or preventing adverse liver conditions” (priority 2017, dated 2023).

How the values were obtained:
CXCL16 = CXCL16 mRNA in primary murine LSECs administered bile acids; format: cell-based, mice; settings: primary murine LSECs in vitro, 24 hours
Description: FIG. 28E is a dot plot showing CXCL16 mRNA levels of isolated LSECs administered different bile acids, in accordance with embodiments of the invention. n=5, p<0.05, one-way ANOVA.
FIG. 28F is a dot plot showing CXCL16 mRNA levels of isolated LSECs administered a combination of T-b-MCA with T-w-MCA or ω-MCA. n=5, p<0.05, one-way ANOVA.
Primary mice liver sinusoidal endothelia cells were isolated as previously described (Limmer et al., Nat. Med., 6: 1348-1354 (2000), incorporated by reference herein). Briefly, mice were CO2 euthanized, and then the portal vein was cannulated, and the liver was perfused with 0.05% collagenase in Ca^2+ deprived medium. Liver cells were dissociated, and parenchymal cells were killed by incubation in 0.04% collagenase in Gey's balanced salt solution at 37° C. for 15 minutes. Then density gradient centrifugation was performed using Nycodenz solution at the final solution of 1.089 g/cm^3. Liver sinusoidal endothelial cells (LSEC) were isolated using anti-LSEC microbeads (Miltenyi, Bergisch Gladbach, Germany) according to the manufacturer's instructions. LSECs or the human SK-HEP1 cell line (ATCC, HTB-52) were administered different bile acids for 24 hours. Gene expression was analyzed by real-time PCR. […]

EL4 tumor cells = experiment: Tail vein EL4 tumor cell injection, liver tumors in wild-type, CXCR6 and CD1d knockout mice; format: in vivo; settings: ABX-administered CXCR6−/− mice
Description: Measurements were taken 3 weeks after injection. Cumulative data are shown. n=10 for Wt-H2O, 7 for Wt-ABX, 4 for CXCR6^−/−-H2O, 5 for CXCR6^−/−-ABX, 5 for CD1d^−/−-H2O, 4 for CD1d^−/−-ABX. p<0.05, two-way ANOVA.
(§1) B16-F1 and A20 cells were purchased from ATCC (Manassas, Va., USA). EL4 cells were used as described (Ma et al., J. Leukoc. Biol., 92: 1199-1206 (2012), incorporated by reference herein). 1×10^6 EL4 tumor cells were given by subcutaneous (s.c.) or tail vein injection, 3×10^5 B16-F1 tumor cells were given by intrasplenic injection as described before (Eggert et al., Cancer Cell, 30: 533-547 (2016), incorporated by reference herein), and 1×10^6 A20 tumor cells were given by tail vein injection.
NKT cells are known to have anti-tumor function and can directly kill CD1d expressing tumors. All three tested tumor models (B16, EL4 and A20) expressed […] at different levels (FIG. 22). To investigate the role of NKT cells in this setting, CD1d knockout and CXCR6 knockout mice were used. CD1d knockout mice completely lack NKT cells, while CXCR6 knockout mice have a selective NKT deficiency in the liver. Loss of hepatic NKT cells in these mice was confirmed (FIG. 23). […]
EL4 tumor cells were injected into ABX-pre-administered CXCR6^−/− mice. ω-MCA was given as described above. Liver surface tumors were counted three weeks after tumor injection.

A20 tumor cells = experiment: Tail vein A20 tumor cell injection, liver metastasis; format: in vivo, BALB/c mice; settings: A20 tumor-bearing antibiotic (vancomycin)-administered mice, ω-MCA feeding
Description: Liver metastases were counted three weeks after injection. Cumulative data are shown. n=8, p<0.05, Student's t-test.
FIG. 7B is a dot plot showing liver weight of liver sections in mice that received tail vein injection of A20 tumor cells. n=4, p<0.05, Student's t-test.
as §1
Mice were kept on ABX cocktail and fresh ABX was replaced every other day. Mice were fed with bile acids by oral gavage 48, 24 and 16 hrs prior to sacrifice. For A20 tumor bearing mice, ω-MCA were given 3 times/week. ω-MCA and CDCA were dissolved in corn oil and given at the dose of 6 mg/15 g body weight.
A20 tumor cells were i.v. injected into vancomycin-(Vanco) or H2O-administered BALB/c mice. ω-MCA (5 mg/mouse) was given by oral gavage three times/week. aCD4 antibody (GK1.5) was given i.p. at the dose of 500 μg/mouse weekly to deplete […] cells. FIGS. 30A and 30B show the results after 3 weeks.

hepatic NKT cells = experiment: In vivo bile acids feeding, hepatic NKT cell levels; settings: ABX-administered mice, oral gavage 6 mg/15 g body weight at 48, 24 and 16 hrs

## C[C@H](CCC(=O)O)[C@H]1CC[C@H]2[C@@H]3[C@@H](O)[C@H](O)[C@@H]4C[C@H](O)CC[C@]4(C)[C@H]3CC[C@]12C [ω-MCA, ω-muricholic acid]
CXCL16
  cxcl16 mRNA expression: decreased
EL4 tumor cells
  liver tumor development: failed to affect
A20 tumor cells
  liver tumor growth: reversed the inhibition of liver tumor growth
Hepatic NKT cells
  hepatic NKT accumulation: effectively reversed hepatic NKT accumulation
